{
  "source": "ChEMBL document CHEMBL5034001",
  "about": "(J Med Chem, 2021)",
  "key": {"[1]": {"system": "SR", "assay": "Antiproliferative activity against human SR cells assessed as inhibition of cell growth incubated for 72 hrs by CCK8 assay", "format": "functional, cell-based"}, "[2]": {"target": "T1, ALK tyrosine kinase receptor (Homo sapiens, UniProt Q9UM73)", "T1 sequence (Q9UM73 19-1620 limits assumed)": "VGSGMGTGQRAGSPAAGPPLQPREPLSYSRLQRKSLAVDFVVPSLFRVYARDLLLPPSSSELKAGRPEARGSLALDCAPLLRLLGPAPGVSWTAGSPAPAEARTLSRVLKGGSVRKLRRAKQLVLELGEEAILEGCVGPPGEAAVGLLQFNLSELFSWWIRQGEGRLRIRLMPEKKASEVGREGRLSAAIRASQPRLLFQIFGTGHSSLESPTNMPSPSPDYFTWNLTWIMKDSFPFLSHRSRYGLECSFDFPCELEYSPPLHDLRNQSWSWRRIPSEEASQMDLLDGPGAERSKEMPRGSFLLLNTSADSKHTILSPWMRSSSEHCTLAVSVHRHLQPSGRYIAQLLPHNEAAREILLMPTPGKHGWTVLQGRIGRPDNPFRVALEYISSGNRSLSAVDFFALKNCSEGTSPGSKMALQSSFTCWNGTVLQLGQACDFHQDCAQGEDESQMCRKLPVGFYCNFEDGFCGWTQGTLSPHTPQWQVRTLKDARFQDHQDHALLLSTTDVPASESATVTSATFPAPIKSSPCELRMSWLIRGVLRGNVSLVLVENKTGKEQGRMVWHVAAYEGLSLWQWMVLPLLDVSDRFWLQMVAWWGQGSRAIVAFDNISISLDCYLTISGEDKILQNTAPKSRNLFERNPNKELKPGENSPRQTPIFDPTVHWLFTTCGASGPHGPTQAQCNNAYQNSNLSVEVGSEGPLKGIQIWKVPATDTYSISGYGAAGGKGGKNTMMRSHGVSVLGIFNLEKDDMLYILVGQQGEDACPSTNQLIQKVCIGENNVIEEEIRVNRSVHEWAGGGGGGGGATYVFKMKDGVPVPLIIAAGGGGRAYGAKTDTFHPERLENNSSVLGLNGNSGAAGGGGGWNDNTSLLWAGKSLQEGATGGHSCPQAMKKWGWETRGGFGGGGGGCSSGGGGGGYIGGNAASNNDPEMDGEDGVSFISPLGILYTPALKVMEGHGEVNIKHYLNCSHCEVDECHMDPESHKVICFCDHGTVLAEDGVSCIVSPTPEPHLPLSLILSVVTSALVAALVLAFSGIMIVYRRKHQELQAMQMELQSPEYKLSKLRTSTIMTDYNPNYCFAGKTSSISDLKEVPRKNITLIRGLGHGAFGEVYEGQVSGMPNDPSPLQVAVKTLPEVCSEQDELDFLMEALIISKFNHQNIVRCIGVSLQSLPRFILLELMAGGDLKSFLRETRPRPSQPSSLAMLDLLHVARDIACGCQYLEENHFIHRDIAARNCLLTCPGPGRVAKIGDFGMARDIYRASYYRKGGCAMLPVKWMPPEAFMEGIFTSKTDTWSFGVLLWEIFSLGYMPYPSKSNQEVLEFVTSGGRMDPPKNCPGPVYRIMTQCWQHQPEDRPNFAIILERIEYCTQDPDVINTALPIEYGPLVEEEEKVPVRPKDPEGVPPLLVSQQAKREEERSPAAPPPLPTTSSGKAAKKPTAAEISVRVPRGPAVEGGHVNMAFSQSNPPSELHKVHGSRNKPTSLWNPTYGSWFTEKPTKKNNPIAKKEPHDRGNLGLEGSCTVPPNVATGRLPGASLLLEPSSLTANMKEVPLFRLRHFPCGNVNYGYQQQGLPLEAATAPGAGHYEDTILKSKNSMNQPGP", "assay": "Induction of ALK degradation in human SR cells at 500 nM after 16 hrs by Western blot analysis", "format": "cell-based"}, "[3]": {"target": "T1, ALK tyrosine kinase receptor", "assay": "Induction of ALK degradation in human SR cells assessed as protein stability at 50 ug/ml after 24 hrs", "format": "cell-based", "settings": "dose 50.0 µg/ml"}, "[4]": {"target": "Protein-tyrosine kinase 2-beta (Homo sapiens) (UniProt Q14289)", "sequence (Q14289 whole entry, looked up)": "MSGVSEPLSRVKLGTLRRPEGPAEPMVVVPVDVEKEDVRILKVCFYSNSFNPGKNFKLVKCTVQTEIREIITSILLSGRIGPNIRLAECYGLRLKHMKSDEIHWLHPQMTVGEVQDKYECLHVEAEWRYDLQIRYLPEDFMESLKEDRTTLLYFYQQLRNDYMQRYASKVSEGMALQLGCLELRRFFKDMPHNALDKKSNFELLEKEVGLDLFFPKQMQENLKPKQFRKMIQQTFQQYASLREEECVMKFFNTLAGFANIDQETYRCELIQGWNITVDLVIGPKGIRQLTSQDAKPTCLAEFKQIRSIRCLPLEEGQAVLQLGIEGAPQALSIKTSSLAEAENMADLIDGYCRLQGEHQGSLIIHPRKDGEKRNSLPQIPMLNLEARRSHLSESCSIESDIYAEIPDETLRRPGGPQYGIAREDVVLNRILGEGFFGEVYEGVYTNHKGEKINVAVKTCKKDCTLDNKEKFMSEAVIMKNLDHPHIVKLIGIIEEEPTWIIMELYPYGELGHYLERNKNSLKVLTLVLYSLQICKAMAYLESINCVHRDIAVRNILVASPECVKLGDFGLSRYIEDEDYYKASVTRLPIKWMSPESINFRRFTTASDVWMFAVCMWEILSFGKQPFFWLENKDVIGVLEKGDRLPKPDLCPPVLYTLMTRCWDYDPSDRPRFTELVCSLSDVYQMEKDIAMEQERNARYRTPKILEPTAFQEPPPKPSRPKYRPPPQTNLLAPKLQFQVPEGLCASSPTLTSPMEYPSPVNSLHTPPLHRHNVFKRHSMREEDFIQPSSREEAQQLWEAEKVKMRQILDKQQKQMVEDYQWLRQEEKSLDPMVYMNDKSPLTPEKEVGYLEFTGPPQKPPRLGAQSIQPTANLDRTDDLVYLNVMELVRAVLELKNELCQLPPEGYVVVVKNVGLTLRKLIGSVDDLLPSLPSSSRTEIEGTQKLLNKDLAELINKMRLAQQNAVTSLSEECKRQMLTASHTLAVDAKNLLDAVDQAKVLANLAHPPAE", "assay": "Induction of PYK2 degradation in human MDA-MB-231 cells assessed as protein stability at 50 ug/ml after 8 hrs", "format": "cell-based", "settings": "dose 50.0 µg/ml"}, "[5]": {"target": "Focal adhesion kinase 1 (Homo sapiens) (UniProt Q05397)", "sequence (Q05397 2-1052 limits assumed)": "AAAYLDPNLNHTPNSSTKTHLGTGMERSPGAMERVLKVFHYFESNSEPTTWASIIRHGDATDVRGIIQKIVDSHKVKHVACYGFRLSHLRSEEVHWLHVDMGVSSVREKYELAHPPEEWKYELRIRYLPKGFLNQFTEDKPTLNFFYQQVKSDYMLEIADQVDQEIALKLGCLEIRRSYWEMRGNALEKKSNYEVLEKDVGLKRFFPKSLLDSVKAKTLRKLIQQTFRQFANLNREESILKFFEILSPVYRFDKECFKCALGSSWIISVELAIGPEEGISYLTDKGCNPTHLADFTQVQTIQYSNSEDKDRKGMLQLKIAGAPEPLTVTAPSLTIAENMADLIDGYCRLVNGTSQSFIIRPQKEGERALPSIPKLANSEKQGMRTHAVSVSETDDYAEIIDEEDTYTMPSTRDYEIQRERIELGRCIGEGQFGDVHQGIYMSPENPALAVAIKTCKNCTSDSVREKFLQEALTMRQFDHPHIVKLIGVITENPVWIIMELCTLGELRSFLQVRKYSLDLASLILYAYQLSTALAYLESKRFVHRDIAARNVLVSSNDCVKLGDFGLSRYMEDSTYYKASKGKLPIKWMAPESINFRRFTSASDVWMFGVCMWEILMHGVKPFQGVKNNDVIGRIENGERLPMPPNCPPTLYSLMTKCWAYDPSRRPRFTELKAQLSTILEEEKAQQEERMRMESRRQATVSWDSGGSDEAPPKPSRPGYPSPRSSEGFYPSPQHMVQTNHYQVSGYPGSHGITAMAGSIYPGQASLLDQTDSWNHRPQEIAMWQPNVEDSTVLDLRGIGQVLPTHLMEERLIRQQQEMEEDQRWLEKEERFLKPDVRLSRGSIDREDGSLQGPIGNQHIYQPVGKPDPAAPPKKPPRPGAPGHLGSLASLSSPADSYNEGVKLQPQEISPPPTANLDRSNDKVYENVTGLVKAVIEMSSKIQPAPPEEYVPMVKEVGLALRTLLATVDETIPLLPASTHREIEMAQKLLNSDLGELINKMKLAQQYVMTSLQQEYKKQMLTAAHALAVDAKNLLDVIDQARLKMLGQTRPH", "assay": "Induction of FAK degradation in human MDA-MB-231 cells assessed as protein stability at 50 ug/ml after 8 hrs", "format": "cell-based", "settings": "dose 50.0 µg/ml"}, "[6]": {"system": "Calu-1", "assay": "Induction of apoptosis in human Calu-1 cells at 100 nM after 72 hrs", "format": "functional, cell-based"}, "[7]": {"system": "SR", "assay": "Antiproliferative activity against human SR cells assessed as inhibition of cell growth at 10 nM preincubated for 5 days followed by compound washout and measured on day 7 and 9 by CCK8 assay", "format": "functional, cell-based", "settings": "time 5.0 day"}, "[8]": {"system": "MDA-MB-231", "assay": "Induction of G1 cell cycle arrest in human MDA-MB-231 cells at 100 nM after 24 to 48 hrs", "format": "functional, cell-based", "settings": "time 24-48 hrs"}, "[9]": {"system": "HEK-293T", "assay": "Antiproliferative activity against human 293T cells overexpressing ALK G1202R mutant assessed as cell growth inhibition after 72 hrs", "format": "functional, cell-based"}, "[10]": {"system": "SR", "assay": "Induction of G1 cell cycle arrest in human SR cells at 100 nM after 24 to 48 hrs", "format": "functional, cell-based", "settings": "time 24-48 hrs"}, "[11]": {"system": "MDA-MB-231", "assay": "Inhibition of cell migration in human MDA-MB-231 cells at 100 nM after 48 hrs by wound healing assay", "format": "functional, cell-based"}, "[12]": {"system": "Calu-1", "assay": "Inhibition of cell migration in human Calu-1 cells at 100 nM after 12 to 24 hrs by wound healing assay", "format": "functional, cell-based", "settings": "time lower […], time upper 24.0 hrs"}, "[13]": {"system": "MDA-MB-231", "assay": "Induction of apoptosis in human MDA-MB-231 cells at 100 nM after 72 hrs", "format": "functional, cell-based"}, "[14]": {"target": "Signal transducer and activator of transcription 3 (Homo sapiens) (UniProt P40763)", "sequence (P40763 whole entry)": "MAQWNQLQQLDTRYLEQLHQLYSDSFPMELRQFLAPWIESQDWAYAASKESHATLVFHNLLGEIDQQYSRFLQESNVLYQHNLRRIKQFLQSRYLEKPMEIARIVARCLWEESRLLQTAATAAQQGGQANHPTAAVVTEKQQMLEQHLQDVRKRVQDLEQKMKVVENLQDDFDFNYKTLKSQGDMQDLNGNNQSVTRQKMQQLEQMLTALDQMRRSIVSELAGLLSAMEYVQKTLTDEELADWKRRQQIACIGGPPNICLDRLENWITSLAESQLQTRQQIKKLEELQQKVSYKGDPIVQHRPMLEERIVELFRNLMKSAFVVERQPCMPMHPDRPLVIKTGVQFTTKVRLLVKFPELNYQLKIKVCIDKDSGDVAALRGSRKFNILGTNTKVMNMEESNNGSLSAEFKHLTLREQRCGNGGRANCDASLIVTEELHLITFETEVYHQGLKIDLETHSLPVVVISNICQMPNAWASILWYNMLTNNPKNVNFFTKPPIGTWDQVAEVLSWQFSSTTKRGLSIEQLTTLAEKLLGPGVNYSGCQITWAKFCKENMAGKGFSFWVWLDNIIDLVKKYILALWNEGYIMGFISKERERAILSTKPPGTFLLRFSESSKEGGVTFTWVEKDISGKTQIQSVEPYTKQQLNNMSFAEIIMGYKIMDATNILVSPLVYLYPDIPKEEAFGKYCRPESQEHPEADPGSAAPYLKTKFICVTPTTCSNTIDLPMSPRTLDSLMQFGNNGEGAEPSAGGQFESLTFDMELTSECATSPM", "assay": "Inhibition of STAT3 downstream signalling in human NCI-H2228 cells assessed as reduction in pSTAT3 level at 1 to 1000 nM by Western blot analysis", "format": "cell-based", "settings": "dose 1-1000 nM"}, "[15]": {"system": "Calu-1", "assay": "Induction of G1 cell cycle arrest in human Calu-1 cells at 100 nM after 24 to 48 hrs", "format": "functional, cell-based", "settings": "time 24-48 hrs"}, "[16]": {"system": "MDA-MB-231", "assay": "Inhibition of cell migration in human MDA-MB-231 cells assessed as wound confluence ratio at 500 nM after 48 hrs by wound healing assay", "format": "functional"}, "[17]": {"target": "Signal transducer and activator of transcription 3 (Homo sapiens) (UniProt P40763)", "assay": "Inhibition of STAT3 downstream signalling in human SR cells assessed as reduction in pSTAT3 level at 10 nM by Western blot analysis", "format": "cell-based"}},
  "note": "Calls of active or inactive are those of the source. No cut-off for these calls is given here.",
  "data": [
    {"smiles": "COc1cc(N2CCC(N3CCN(C(=O)CNc4cccc5c4C(=O)N(C4CCC(=O)N(C)C4=O)C5=O)CC3)CC2)ccc1Nc1ncc(Cl)c(Nc2ccccc2P(C)(C)=O)n1", "note": "(stereo not drawn)", "values": [
      {"measurement": "IC50", "setting": "[1]", "value": 16.3, "unit": "nM"},
      {"measurement": "Activity", "setting": "[2]", "value": "Active"}
    ]},
    {"smiles": "COc1cc(N2CCC(N3CCN(C(=O)CCCCNc4cccc5c4C(=O)N(C4CCC(=O)NC4=O)C5=O)CC3)CC2)ccc1Nc1ncc(Cl)c(Nc2ccccc2P(C)(C)=O)n1", "note": "(stereo not drawn)", "values": [
      {"measurement": "IC50", "setting": "[1]", "value": 7.4, "unit": "nM"}
    ]},
    {"smiles": "COc1cc(N2CCC(N3CCN(C(=O)CCOCCOCCOCCNc4cccc5c4C(=O)N(C4CCC(=O)NC4=O)C5=O)CC3)CC2)ccc1Nc1ncc(Cl)c(Nc2ccccc2P(C)(C)=O)n1", "note": "(stereo not drawn)", "values": [
      {"measurement": "IC50", "setting": "[1]", "value": 5.3, "unit": "nM"}
    ]},
    {"smiles": "COc1cc(N2CCC(N3CCN(C(=O)CCOCCOCCOCCOCCOCCNc4cccc5c4C(=O)N(C4CCC(=O)NC4=O)C5=O)CC3)CC2)ccc1Nc1ncc(Cl)c(Nc2ccccc2P(C)(C)=O)n1", "note": "(stereo not drawn)", "values": [
      {"measurement": "IC50", "setting": "[1]", "value": 14, "unit": "nM"}
    ]},
    {"smiles": "C[C@@H]1C[C@@H]([C@H](O)CC2CC(=O)NC(=O)C2)C(=O)[C@@H](C)C1", "values": [
      {"measurement": "Activity", "setting": "[3]", "value": "Active"},
      {"measurement": "Activity", "setting": "[4]", "value": "Active"},
      {"measurement": "Activity", "setting": "[5]", "value": "Active"}
    ]},
    {"smiles": "COc1cc(N2CCC(N3CCN(C(=O)CCOCCOCCNc4cccc5c4C(=O)N(C4CCC(=O)NC4=O)C5=O)CC3)CC2)ccc1Nc1ncc(Cl)c(Nc2ccccc2P(C)(C)=O)n1", "note": "(stereo not drawn)", "values": [
      {"measurement": "IC50", "setting": "[1]", "value": 3.6, "unit": "nM"}
    ]},
    {"smiles": "COc1cc(N2CCC(N3CCN(C(=O)CCOCCNc4cccc5c4C(=O)N(C4CCC(=O)NC4=O)C5=O)CC3)CC2)ccc1Nc1ncc(Cl)c(Nc2ccccc2P(C)(C)=O)n1", "note": "(stereo not drawn)", "values": [
      {"measurement": "IC50", "setting": "[1]", "value": 3.8, "unit": "nM"}
    ]},
    {"smiles": "COc1cc(N2CCC(N3CCN(C(=O)CCNc4cccc5c4C(=O)N(C4CCC(=O)NC4=O)C5=O)CC3)CC2)ccc1Nc1ncc(Cl)c(Nc2ccccc2P(C)(C)=O)n1", "note": "(stereo not drawn)", "values": [
      {"measurement": "IC50", "setting": "[1]", "value": 9.6, "unit": "nM"}
    ]},
    {"smiles": "COc1cc(N2CCC(N3CCN(C(=O)CCCCCNc4cccc5c4C(=O)N(C4CCC(=O)NC4=O)C5=O)CC3)CC2)ccc1Nc1ncc(Cl)c(Nc2ccccc2P(C)(C)=O)n1", "note": "(stereo not drawn)", "values": [
      {"measurement": "IC50", "setting": "[1]", "value": 3.3, "unit": "nM"}
    ]},
    {"smiles": "COc1cc(N2CCC(N3CCN(C(=O)CCOCCOCCOCCOCCNc4cccc5c4C(=O)N(C4CCC(=O)NC4=O)C5=O)CC3)CC2)ccc1Nc1ncc(Cl)c(Nc2ccccc2P(C)(C)=O)n1", "note": "(stereo not drawn)", "values": [
      {"measurement": "IC50", "setting": "[1]", "value": 11.2, "unit": "nM"}
    ]},
    {"smiles": "COc1cc(N2CCC(N3CCN(C(=O)CCCCCCNc4cccc5c4C(=O)N(C4CCC(=O)NC4=O)C5=O)CC3)CC2)ccc1Nc1ncc(Cl)c(Nc2ccccc2P(C)(C)=O)n1", "note": "(stereo not drawn)", "values": [
      {"measurement": "IC50", "setting": "[1]", "value": 4.8, "unit": "nM"}
    ]},
    {"smiles": "COc1cc(N2CCC(N3CCN(C)CC3)CC2)ccc1Nc1ncc(Cl)c(Nc2ccccc2P(C)(C)=O)n1", "note": "[BRIGATINIB]", "values": [
      {"measurement": "Activity", "setting": "[6]", "value": "inactive"},
      {"measurement": "Activity", "setting": "[7]", "value": "inactive"},
      {"measurement": "Activity", "setting": "[8]", "value": "inactive"},
      {"measurement": "IC50", "setting": "[9]", "value": 850, "unit": "nM"},
      {"measurement": "Activity", "setting": "[10]", "value": "Active"},
      {"measurement": "IC50", "setting": "[1]", "value": 3.3, "unit": "nM"},
      {"measurement": "inhibition", "setting": "[11]", "value": "inactive"},
      {"measurement": "inhibition", "setting": "[12]", "value": "inactive"},
      {"measurement": "Activity", "setting": "[13]", "value": "inactive"},
      {"measurement": "inhibition", "setting": "[14]", "value": "inactive"},
      {"measurement": "Activity", "setting": "[15]", "value": "inactive"},
      {"measurement": "inhibition at 0.5 µM", "setting": "[16]", "value": 56, "unit": "%"},
      {"measurement": "inhibition", "setting": "[17]", "value": "Active"}
    ]},
    {"smiles": "COc1cc(N2CCC(N3CCN(C(=O)CCCNc4cccc5c4C(=O)N(C4CCC(=O)NC4=O)C5=O)CC3)CC2)ccc1Nc1ncc(Cl)c(Nc2ccccc2P(C)(C)=O)n1", "note": "(stereo not drawn)", "values": [
      {"measurement": "IC50", "setting": "[1]", "value": 2.9, "unit": "nM"}
    ]}
  ]
}
